{
  "source": "paper PMC7290078",
  "about": "“Agonist bias and agonist‐dependent antagonism at corticotrophin releasing factor receptors” (Pharmacology Research & Perspectives, 2020)",
  "key": {"calcitonin receptor": {"system": "calcitonin receptor", "experiment": "Antagonism of calcitonin-mediated IP1 accumulation in Cos7 cells expressing the human calcitonin receptor", "format": "cell-based", "conditions": "100 µmol/L; n = 3", "description": "Plasmids containing hCRF1α and hCRF2α (GenBank accession numbers AY457172 and AY449734) were obtained from the cDNA Resource Centre (Bloomsburg University) and are referred to as CRF1 and CRF2 in this manuscript. Hemagglutinin (HA) epitope‐tagged human Calcitonin (CT) receptor (CT(a) splice variant) and myc‐tagged human RAMP1 were used as described previously. ^27 HA‐tagged human calcitonin receptor‐like receptor (CLR), N‐terminal FLAG‐tagged human RAMP3 and N‐terminal myc‐tagged human RAMP3 were a gift from Professor David Poyner (Aston University) and Professor Patrick Sexton (Monash University), respectively. […]\nCos7, HEK‐293S, and HEK‐293T cells were cultured as described previously. ^28 , ^29 Cos7 cells were originally supplied by the ATCC to Associate Professor Nigel Birch (University of Auckland). […] For transfection, cells were counted (Countess CounterTM; Life Technologies) and plated at a density of 20 000 cells per well in 96‐well plates. […]\nThe IP‐one Gq assay kit (Cisbio) was used to quantify accumulated myo‐inositol‐1‐phosphate (IP1), a by‐product of IP3 produced after receptor‐mediated Gαq activation in Cos7 and HEK‐293S cells. […] Fifteen microliters of sample was then transferred to a 384‐well optiplate and read by an Envision plate reader (PerkinElmer). IP1 concentrations were calculated from a standard curve generated in duplicate. […]"}, "CRF2 receptor (hCRF2α) [1]": {"target": "T1, CRF2 receptor (hCRF2α) (Homo sapiens, UniProt Q13324)", "T1 construct": "host or cells: Cos7 cells, transient transfection (PEI), pcDNA3.0/3.1 vector", "T1 sequence (Q13324 1-411)": "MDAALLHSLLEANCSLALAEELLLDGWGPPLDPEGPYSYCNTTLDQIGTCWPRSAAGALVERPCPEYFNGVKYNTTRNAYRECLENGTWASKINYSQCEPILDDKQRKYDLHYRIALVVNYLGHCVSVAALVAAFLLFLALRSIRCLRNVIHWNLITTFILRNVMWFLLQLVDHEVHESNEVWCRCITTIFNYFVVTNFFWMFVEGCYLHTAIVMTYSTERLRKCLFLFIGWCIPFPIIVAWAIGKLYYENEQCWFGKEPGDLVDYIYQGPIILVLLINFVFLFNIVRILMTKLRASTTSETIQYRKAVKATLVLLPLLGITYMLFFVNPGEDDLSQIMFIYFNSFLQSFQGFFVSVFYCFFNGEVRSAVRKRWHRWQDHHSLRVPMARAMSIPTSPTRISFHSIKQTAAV", "experiment": "IP1 accumulation (IP-one Gq) in Cos7 cells transfected with hCRF2α, agonist stimulation", "format": "cell-based", "description": "(§1) Plasmids containing hCRF1α and hCRF2α (GenBank accession numbers AY457172 and AY449734) were obtained from the cDNA Resource Centre (Bloomsburg University) and are referred to as CRF1 and CRF2 in this manuscript. Hemagglutinin (HA) epitope‐tagged human Calcitonin (CT) receptor (CT(a) splice variant) and myc‐tagged human RAMP1 were used as described previously. ^27 HA‐tagged human calcitonin receptor‐like receptor (CLR), N‐terminal FLAG‐tagged human RAMP3 and N‐terminal myc‐tagged human RAMP3 were a gift from Professor David Poyner (Aston University) and Professor Patrick Sexton (Monash University), respectively. N‐terminal FLAG‐tagged human RAMP2 was used as described previously. ^28 All receptors and RAMPs were cloned in pcDNA3.0 or pcDNA3.1 plasmid vectors. All plasmid inserts were sequenced at the Centre for Genomics, Proteomics and Metabolomics (University of Auckland) and the sequences were verified prior to use.\n(§2) Cos7, HEK‐293S, and HEK‐293T cells were cultured as described previously. ^28 , ^29 Cos7 cells were originally supplied by the ATCC to Associate Professor Nigel Birch (University of Auckland). HEK‐293S cells were a gift from Professor David Poyner (Aston University) and HEK‐293T cells a gift from Professor John Taylor (University of Auckland). Briefly, all cell lines were cultured in Dulbecco's Modified Eagle Medium (DMEM) supplemented with 8% heat inactivated fetal bovine serum (FBS) and maintained in a humidified incubator at 37°C with 5% CO2. For transfection, cells were counted (Countess CounterTM; Life Technologies) and plated at a density of 20 000 cells per well in 96‐well plates. The cells were transiently transfected 48 hours prior to assaying using polyethylenimine (PEI), as described previously. ^28 , ^29 In all experiments a total of 0.25 μg DNA was transfected per well. In the majority of experiments 0.25 μg DNA of receptor‐containing plasmid or the pcDNA3.1 plasmid without an insert was used. For experiments involving RAMPs, 0.125 μg of receptor DNA and 0.125 μg of RAMP‐containing plasmid DNA were transfected to give a 1:1 ratio of receptor to RAMP. Where the RAMP or receptor were transfected alone, the ratio of DNA was made up with the pcDNA3.1 plasmid.\nThe IP‐one Gq assay kit (Cisbio) was used to quantify accumulated myo‐inositol‐1‐phosphate (IP1), a by‐product of IP3 produced after receptor‐mediated Gαq activation in Cos7 and HEK‐293S cells. Briefly, culture media was removed and replaced with DMEM containing 0.1% BSA for 30 minutes at 37°C. Cells were then incubated with media containing 50 mmol/L lithium chloride (LiCl) for an additional 0‐120 minutes (time courses) or 90 minutes at 37°C in the presence or absence of an antagonist. Agonist concentrations of 1 pmol/L to 10 µmol/L were used for agonist only assays or 10 pmol/L to 10 µmol/L concentrations for antagonist experiments. After cell stimulation, 14 µL of stimulation buffer was added to each well. Three microlitres of each detection antibody were added in turn to the plate and incubated at room temperature for 1 hour. Fifteen microliters of sample was then transferred to a 384‐well optiplate and read by an Envision plate reader (PerkinElmer). IP1 concentrations were calculated from a standard curve generated in duplicate.\nIn all experiments the position of peptides and antagonists (pharmacology) or transfected receptors (ELISAs) on assay plates was randomized during each independent experiment, which are independent biological replicates. […]"}, "CRF2 receptor (hCRF2α) [2]": {"target": "T1, CRF2 receptor (hCRF2α)", "experiment": "ERK1/2 phosphorylation (AlphaLISA Surefire Ultra) in Cos7 cells transfected with hCRF2α", "format": "cell-based", "description": "as §1, §2\nThe AlphaLISA Surefire Ultra extracellular signal‐regulated kinase 1/2 (ERK1/2) phosphorylation (pERK1/2) assay kit (PerkinElmer Life and Analytical Sciences) was used to measure pERK1/2 in cell lysates after agonist stimulation. For these assays 20% FBS was used as a positive control. Following peptide stimulation at 37°C for 0‐30 minutes with 100 nmol/L agonist (time courses) or 7 minutes with media alone or 1 pmol/L to 1 µmol/L agonist, media was removed and 20 µL of lysis buffer added to each well. Plates were shaken at room temperature for 10 minutes. Each sample was then transferred to a 384‐well optiplate and pERK1/2 measurement performed as per the manufacturer's instructions. Samples were read using an Envision plate reader (PerkinElmer).\nIn all experiments the position of peptides and antagonists (pharmacology) or transfected receptors (ELISAs) on assay plates was randomized during each independent experiment, which are independent biological replicates. In all cases, duplicate, triplicate, or quadruplicate technical replicates were conducted for each independent experiment. For transfected cell experiments, each independent experiment involved plating cells from a distinct passage, separate transient transfection and separate signaling or ELISA assays, constituting experimental n. For ERK1/2 and IP1 signaling pathways, time‐course experiments were first conducted with a saturating concentration of UCN1 to determine the optimal time to conduct concentration‐response experiments. Concentration‐response experiments were then conducted with the same experimental design for cAMP, ERK1/2, and IP1 pathways. […] All group sizes were designed to be equal at n = 5 independent experiments."}, "CRF2 receptor": {"system": "CRF2 receptor", "design": "method as in PMID 11123370, PMID 12615952", "conditions": "cited from earlier work"}},
  "note": "No end group written: not given here.",
  "data": [
    {"compound": "CCC(CC)Nc1cc(C)nc(Oc2c(C)cc(C)cc2C)c1C", "note": "[CP‐376,395]", "values": [
      {"measurement": "effect on IP1 accumulation at the calcitonin receptor", "setting": "calcitonin receptor", "result": "no effect on IP1 accumulation at the calcitonin receptor"}
    ]},
    {"compound": "DNPSLSIDLTFHLLRTLLELARTQSQRERAEQNRIIFDSV-NH2 [UCN1]", "values": [
      {"measurement": "EC50", "setting": "CRF2 receptor (hCRF2α) [1]; IP1, hCRF2α, Cos7, 90 min at 37°C, 50 mmol/L LiCl, 1 pmol/L to 10 µmol/L agonist, mean ± SEM, n = 5", "result": 4.68, "unit": "nM"},
      {"measurement": "EC50", "setting": "CRF2 receptor (hCRF2α) [2]; pERK1/2, hCRF2α, Cos7, 7 min at 37°C, 1 pmol/L to 1 µmol/L agonist, mean ± SEM, n = 5", "result": 5.62, "unit": "nM"}
    ]},
    {"compound": "IVLSLDVPIGLLQILLEQARARAAREQATTNARILARVGHC-NH2 (C-terminus assumed) [UCN2]", "values": [
      {"measurement": "binding affinity in words", "setting": "CRF2 receptor", "result": "high affinity"},
      {"measurement": "concentration‐dependent increase in IP1 accumulation", "setting": "CRF2 receptor (hCRF2α) [1]; CRF2 receptor", "result": "concentration‐dependent increases"},
      {"measurement": "Hill slope", "setting": "CRF2 receptor (hCRF2α) [1]; IP1, CRF2 receptor", "result": "not significantly different from one"},
      {"measurement": "Δlog(τ/K A) (relative efficacy)", "setting": "CRF2 receptor (hCRF2α) [1]; IP1, hCRF2α, reference agonist UCN1, mean ± SEM, n = 5", "result": "−1.42 ± 0.13"},
      {"measurement": "ΔΔlog(τ/K A) (signaling bias)", "setting": "CRF2 receptor (hCRF2α) [1]; IP1 relative to cAMP, hCRF2α, reference agonist UCN1, mean ± SEM, n = 5", "result": "−0.87 ± 0.23"},
      {"measurement": "ability to produce pERK1/2, comparison of peptides", "setting": "CRF2 receptor (hCRF2α) [2]; CRF2 receptor", "result": "no significant difference"},
      {"measurement": "concentration‐dependent increase in pERK1/2", "setting": "CRF2 receptor (hCRF2α) [2]; CRF2 receptor", "result": "concentration‐dependent increases"},
      {"measurement": "Hill slope", "setting": "CRF2 receptor (hCRF2α) [2]; pERK1/2, CRF2 receptor", "result": 0.23},
      {"measurement": "Δlog(τ/K A) (relative efficacy)", "setting": "CRF2 receptor (hCRF2α) [2]; pERK1/2, hCRF2α, reference agonist UCN1, mean ± SEM, n = 5", "result": "−0.19 ± 0.42"},
      {"measurement": "ΔΔlog(τ/K A) (signaling bias)", "setting": "CRF2 receptor (hCRF2α) [2]; pERK1/2 relative to cAMP, hCRF2α, reference agonist UCN1, mean ± SEM, n = 5", "result": "0.36 ± 0.46"}
    ]}
  ]
}
